The values below are quoted from earlier work in patent US11208393B2, “Methods for extraction, processing, and purification of a selected family of target compounds from cannabis” (Nectar Health Sciences Inc., priority 2019, dated 2021).

The conditions of this data set: of the protonated amine (ammonium ion).

On to `CN(C)CCO` [(CH3)2NHCH2OH^+, dimethylethanolamine], for which the pKa (as a rule, the negative logarithm of the acid dissociation constant) is 9.3.

As to `C1CN2CCN1CC2` [DABCO, 1,4-diazabicyclo[2.2.2]octane], the pKa is 8.9.

As for `CN(C)CCN(C)C` [TMEDA, tetramethylethylenediamine], the pKa is on record as 9.0.
